Assay results reported in article PMC11864979, “First-in-class ultralong-target-residence-time p38α inhibitors as a mitosis-targeted therapy for colorectal cancer” (Nature Cancer, 2025).
Where two headings read alike, the source gives them in different places.

Assays:
Assay in all cases: selectivity profiling in a panel of 340 wild-type kinases (Reaction Biology Europe)
Type in all cases: binding
[1] = tested on: 340 wild-type kinases; settings: for residual activity: RAF1 YDYD
[2] = biological target: T1, 340 wild-type kinases (Homo sapiens, UniProt P15735)
T1 construct: purchased Reaction Biology Europe
T1 sequence (P15735 1-406): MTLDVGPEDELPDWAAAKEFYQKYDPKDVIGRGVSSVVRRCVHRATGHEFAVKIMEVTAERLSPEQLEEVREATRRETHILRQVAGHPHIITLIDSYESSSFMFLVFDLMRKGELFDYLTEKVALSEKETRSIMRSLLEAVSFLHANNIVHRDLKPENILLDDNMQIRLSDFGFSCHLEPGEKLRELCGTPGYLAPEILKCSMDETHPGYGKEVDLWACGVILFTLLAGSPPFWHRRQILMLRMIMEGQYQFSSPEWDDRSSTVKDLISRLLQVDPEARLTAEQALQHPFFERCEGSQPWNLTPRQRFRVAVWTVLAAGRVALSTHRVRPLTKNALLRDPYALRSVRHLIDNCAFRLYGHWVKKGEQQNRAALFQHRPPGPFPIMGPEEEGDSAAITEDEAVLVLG

[3] = biological target: T2, 340 wild-type kinases (Homo sapiens, UniProt P21709)
T2 construct: purchased Reaction Biology Europe
T2 sequence (P21709 26-976): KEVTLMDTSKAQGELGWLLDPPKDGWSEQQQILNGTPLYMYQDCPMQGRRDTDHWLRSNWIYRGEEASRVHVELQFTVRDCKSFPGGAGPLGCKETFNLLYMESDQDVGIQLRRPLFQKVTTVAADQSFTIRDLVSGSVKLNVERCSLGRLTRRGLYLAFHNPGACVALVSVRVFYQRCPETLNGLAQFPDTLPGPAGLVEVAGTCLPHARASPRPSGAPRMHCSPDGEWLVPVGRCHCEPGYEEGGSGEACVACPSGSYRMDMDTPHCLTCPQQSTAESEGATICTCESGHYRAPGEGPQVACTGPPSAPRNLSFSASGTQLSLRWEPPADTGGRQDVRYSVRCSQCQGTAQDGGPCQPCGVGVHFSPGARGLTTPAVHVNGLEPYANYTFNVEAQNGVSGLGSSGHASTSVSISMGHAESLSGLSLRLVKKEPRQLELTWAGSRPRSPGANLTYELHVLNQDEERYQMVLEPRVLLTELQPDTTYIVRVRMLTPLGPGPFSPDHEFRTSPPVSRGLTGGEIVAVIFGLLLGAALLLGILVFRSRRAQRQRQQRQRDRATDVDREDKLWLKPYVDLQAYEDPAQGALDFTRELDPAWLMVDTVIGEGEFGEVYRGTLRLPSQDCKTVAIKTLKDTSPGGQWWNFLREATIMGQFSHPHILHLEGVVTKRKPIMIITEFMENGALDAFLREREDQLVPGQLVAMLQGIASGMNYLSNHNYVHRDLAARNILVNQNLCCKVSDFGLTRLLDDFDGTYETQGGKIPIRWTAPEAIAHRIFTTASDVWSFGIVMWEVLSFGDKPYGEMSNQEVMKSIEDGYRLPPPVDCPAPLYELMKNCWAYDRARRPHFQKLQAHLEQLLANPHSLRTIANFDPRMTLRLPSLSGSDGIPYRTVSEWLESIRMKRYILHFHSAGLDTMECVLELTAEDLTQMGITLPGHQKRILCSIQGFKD

[4] = biological target: T3, 340 wild-type kinases (Homo sapiens, UniProt Q8TDC3)
T3 construct: purchased Reaction Biology Europe
T3 sequence (Q8TDC3 1-778): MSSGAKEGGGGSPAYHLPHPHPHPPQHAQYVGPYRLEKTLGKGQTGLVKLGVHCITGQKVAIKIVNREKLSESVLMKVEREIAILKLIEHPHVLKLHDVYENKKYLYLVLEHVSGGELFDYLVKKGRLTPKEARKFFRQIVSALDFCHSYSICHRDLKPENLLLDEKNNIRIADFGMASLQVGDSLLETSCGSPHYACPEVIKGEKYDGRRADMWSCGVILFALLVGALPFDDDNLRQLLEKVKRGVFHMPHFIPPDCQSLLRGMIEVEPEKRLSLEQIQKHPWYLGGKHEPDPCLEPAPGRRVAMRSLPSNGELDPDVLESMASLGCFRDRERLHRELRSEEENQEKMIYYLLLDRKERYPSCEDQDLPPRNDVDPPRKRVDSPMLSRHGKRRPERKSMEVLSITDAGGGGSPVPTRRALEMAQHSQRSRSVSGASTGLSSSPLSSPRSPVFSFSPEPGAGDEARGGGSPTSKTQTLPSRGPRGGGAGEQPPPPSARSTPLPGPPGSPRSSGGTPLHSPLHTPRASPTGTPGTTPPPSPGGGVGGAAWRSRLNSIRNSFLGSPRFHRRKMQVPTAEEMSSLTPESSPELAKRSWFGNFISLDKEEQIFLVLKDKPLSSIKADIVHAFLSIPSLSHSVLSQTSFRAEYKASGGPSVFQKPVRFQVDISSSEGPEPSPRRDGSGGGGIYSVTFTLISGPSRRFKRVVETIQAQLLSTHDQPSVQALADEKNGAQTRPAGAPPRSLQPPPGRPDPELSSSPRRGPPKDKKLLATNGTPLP

[5] = biological target: T4, 340 wild-type kinases (Homo sapiens, UniProt P19784)
T4 construct: purchased Reaction Biology Europe
T4 sequence (P19784 whole entry): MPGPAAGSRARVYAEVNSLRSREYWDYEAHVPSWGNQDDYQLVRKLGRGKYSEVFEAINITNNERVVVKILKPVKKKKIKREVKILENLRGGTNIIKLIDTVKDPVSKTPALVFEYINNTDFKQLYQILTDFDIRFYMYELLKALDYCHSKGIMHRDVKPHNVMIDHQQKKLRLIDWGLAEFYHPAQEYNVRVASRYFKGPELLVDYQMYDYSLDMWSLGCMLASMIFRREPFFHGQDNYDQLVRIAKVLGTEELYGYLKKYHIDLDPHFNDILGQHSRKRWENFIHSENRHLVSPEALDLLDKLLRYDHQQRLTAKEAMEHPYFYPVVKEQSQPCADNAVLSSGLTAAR

SMILES: CNC(=O)c1ccc2c(c1)C(=O)c1ccc(Nc3ccc(F)c(NC(=O)C4CC4)c3)cc1CC2 [Compound 2015]
- PKCbeta2 residual activity ([1]; 0.2 µM 2015): 102.668%
- PKCbeta2 residual activity ([1]; 1 µM 2015): 108.52%
- residual activity ([1]; 0.2 µM): 80.31%
- residual activity ([1]; 1 µM): 88.78%
- effect on p38α and p38β (in words) ([1]; panel of 340 kinases, 1 µM and 0.2 µM): specifically inhibited
- remaining activity at 0.2 µM ([2]; 0.2 µM 2015, read-out: PHKG2 residual activity): 102%
- remaining activity at 1 µM ([2]; 1 µM 2015, read-out: PHKG2 residual activity): 98.8%
- remaining activity at 0.2 µM ([2]; PHKG2, 0.2 µM, read-out: residual activity): 102%
- remaining activity at 1 µM ([2]; PHKG2, 1 µM, read-out: residual activity): 98.8%
- remaining activity at 0.2 µM ([3]; 0.2 µM 2015, read-out: EPHA1 residual activity): 87.2%
- remaining activity at 1 µM ([3]; 1 µM 2015, read-out: EPHA1 residual activity): 82.1%
- remaining activity at 0.2 µM ([3]; EPHA1, 0.2 µM, read-out: residual activity): 87.2%
- remaining activity at 1 µM ([3]; EPHA1, 1 µM, read-out: residual activity): 82.1%
- remaining activity at 0.2 µM ([4]; 0.2 µM 2015, read-out: BRSK1 residual activity): 99.5%
- remaining activity at 1 µM ([4]; 1 µM 2015, read-out: BRSK1 residual activity): 90.5%
- remaining activity at 0.2 µM ([4]; BRSK1, 0.2 µM, read-out: residual activity): 99.5%
- remaining activity at 1 µM ([4]; BRSK1, 1 µM, read-out: residual activity): 90.5%
- remaining activity at 0.2 µM ([5]; 0.2 µM 2015, read-out: CK2alpha2 residual activity): 102%
- remaining activity at 1 µM ([5]; 1 µM 2015, read-out: CK2alpha2 residual activity): 97.2%
- remaining activity at 0.2 µM ([5]; CK2alpha2, 0.2 µM, read-out: residual activity): 102%
- remaining activity at 1 µM ([5]; CK2alpha2, 1 µM, read-out: residual activity): 97.2%
